Assay results taken from publication PMC10466336, “Chemical Probe for Imaging of Polo-like Kinase 4 and Centrioles” (JACS Au, 2023).

Legend:
Plk4 kinase domain = biological target: T1, Plk4 kinase domain (Homo sapiens, UniProt O00444); assay: Competition binding assay based on fluorescence polarization (tracer Alexa488-PEG-N-centrinone); conditions: for Kd: Alexa488-PEG-N-centrinone 1 nM, Plk4-KD 5 nM; for binding affinity lower (KD higher) than that of unmodified centrinone: ratio of Kd to Kd of centrinone
T1 construct: Plasmids encoding fragments of Plk4 kinase domain (2-275) with 6xHis-tag were cloned in pET system vectors; made in house; host or cells: E. coli BL21 gold (DE3)
T1 sequence (O00444 2-275): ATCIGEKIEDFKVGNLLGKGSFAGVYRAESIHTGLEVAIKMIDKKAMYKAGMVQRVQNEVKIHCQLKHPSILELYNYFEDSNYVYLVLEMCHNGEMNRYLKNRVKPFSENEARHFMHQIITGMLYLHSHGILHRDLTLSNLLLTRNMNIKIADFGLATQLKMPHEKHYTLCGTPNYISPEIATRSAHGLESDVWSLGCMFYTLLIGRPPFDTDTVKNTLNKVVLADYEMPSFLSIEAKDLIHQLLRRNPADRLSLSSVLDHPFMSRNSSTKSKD
Source text: Moreover, we substituted the basic acetyl-piperazine nitrogen in compounds (1 and 2a) with an acetyl-piperidine, to avoid probe protonation and accumulation in endolysosomal compartments (Figure S1A, B).[23] […] These probes were characterized first in vitro by measuring their fluorogenicity in the presence of the 6xHis-tagged Plk4 kinase domain (KD) (Table 1). […] Next, we measured the binding affinities of the probes to the Plk4 kinase domain via a competition binding assay based on fluorescence polarization. […]
1.3.6 Fluorescence Polarization assay & competition assay […]
plate (Greiner Bio-One). Upon mixture of protein and ligand, the plate was incubated for 30 min at room temperature followed by fluorescence polarization measurements by a plate reader (TECAN Spark® 20M) using 485 nm as excitation wavelength (bandwidth 20 nm) and 535 nm as emission wavelength (bandwidth 25 nm). The obtained fluorescence polarization values from each well were plotted against the concentration of the protein. The apparent Kd values were obtained by fitting the curve to the […]
FP = FP + FPmax ― FPmin (C + C + K ― (C + C + K )2 ― 4C C ) […]
protein should be around the Kd of the tracer to ensure that enough free protein that can bind the […]
competitor, and enough signal change coming from binding and unbinding of the tracer. The solution of the tracer and protein was titrated with increasing amounts of competitors, in our case SiR650- and […]
The mixture was then incubated for an hour at room temperature and the FP was then measured on a plate reader using the same conditions as mentioned before. From the obtained FP values, we have calculated the amount of free protein in the solution for each concentration of competitor using the equation of the single-site binding isotherm:
Pfree = Kd_tracer FP ― FP
Where Pfree is concentration of free protein, Kd tracer represents the previously determined binding affinity

[1] = system: HeLa cells expressing Centrin1-GFP; assay: Centriole phenotypic scoring (number of Centrin1-GFP foci); format: cell-based, human
Source text: Having established that SiR595-centrinone (2d) can successfully label overexpressed Plk4, we wanted to investigate whether it also marks endogenous Plk4. […] In contrast, partial Plk4 inhibition leads to increased levels of centriolar Plk4 due to partial interference with protein degradation mediated by autophosphorylation, overall resulting in centriole overamplification.[8] Therefore, both under-duplication and overamplification of centrioles can be used as a proxy for SiR595-centrinone binding to endogenous Plk4. […] We conclude that the failure of SiR595-centrinone (2d) to detect endogenous Plk4 is due to the low binding affinity of the probe in combination with low protein levels. […] In the second step, the Plk4-bound molecule is specifically reacted with an appropriate fluorogenic tetrazine dye.[27]−[33] This strategy was applied previously successfully to label various protein targets in live and fixed cells,[30],[32],[34]−[38] and we reasoned that a smaller and potentially more permeable Cen-TCO (3) derivative would likewise enable more efficient labeling of endogenous Plk4.
We conjugated trans-cyclooctene to the previously obtained compound (4) to obtain Cen-TCO (3) using the synthetic route outlined in Scheme S2. The resulting Cen-TCO (3) reacted with an appropriate tetrazine, such as SiR650-TetH (4a) (Figure S4A). The reaction was followed by LC-MS, and the data confirmed quantitative conversion of Cen-TCO (3) to the appropriate cycloaddition product Cen-Click-SiR650 (Figure S4A, D). […] To assess the phenotype caused by Cen-TCO (3), we incubated HeLa cells expressing Centrin1-GFP with different concentrations of Cen-TCO (3) for 24 h, followed by scoring of Centrin1-GFP foci numbers (Figure S5B). […] Despite the high unspecific background signal, a clear focus could be detected at centrioles (Figure 4B). […] The fwhm of the circular signal in this case was 368 ± 26 (N = 6) (Figure S7B), which corresponds to the size measured with overexpressed GFP-Plk4(K41M) (see Figure 3D), and approximately that of the torus region surrounding the centriole.[40] […]

| binding affinity higher than that of SiR595-centrinone (2d) (Plk4 kinase domain; ratio of Kd values) | Structure (SMILES) | Kd (Plk4 kinase domain) | binding affinity lower (KD higher) than that of unmodified centrinone (Plk4 kinase domain) | concentration causing the centriole under-duplication phenotype ([1]; 24 h incubation, scoring of Centrin1-GFP foci) | effect on centriole numbers ([1]; 2 μM, 24 h) |
| --- | --- | --- | --- | --- | --- |
| 4 fold | COc1c(Nc2cc(C)[nH]n2)nc(Sc2ccc(S(=O)(=O)Cc3cccc([N+](=O)[O-])c3F)cc2F)nc1N1CCC(CC(=O)NCCNC(=O)OC2CC/C=C/CCC2)CC1 (stereo not shown) [compound 3] | 8 ± 1 nM | ~9 fold | ≥ 500 nM |  |
|  | COc1c(Nc2cc(C)[nH]n2)nc(Sc2ccc(S(=O)(=O)Cc3cccc([N+](=O)[O-])c3F)cc2F)nc1N1CCC(CC(=O)NCCNC(=O)c2ccc(C(=O)O)c(C3=C4C=CC(=N)C=C4[Si](C)(C)c4cc(N)ccc43)c2)CC1 [2d] | 38 ± 5 nM | 42 fold |  | did not affect centriole numbers |
